A value given as a limit tells only on which side of the number the result lay.

Holding throughout (type): cell-based, human
The test system of one assay is FL-SMN2 mRNA. Nature of the assay: qPCR of FL-SMN2 transcripts in SMA type II fibroblasts (GM03813). The note with it: 24 h, 50% total FL-SMN2 mRNA increase, normalized to GAPDH, 95% CI in brackets. Here is the method:
(§1) GM03813 fibroblasts, GM24468-derived MNs, NRK-49F, MDCK, CV-1, or NCMDF cells were plated at a density of 0.5 or 1.5 × 10^4, 4 × 10^4, 5 × 10^3, 5 × 10^3, 8 × 10^3, or 6 × 10^3 cells/well on 96-well plates, respectively. After approximately 6 h, the medium was added with the same volume of culture medium containing each compound at the concentration of 0.06, 0.2, 0.6, 0.2, and 6 µM. The final concentration of DMSO was adjusted to 0.1% in culture condition.
(§2) All cells were treated with above compounds for 24 h and washed once with Dulbecco’s Phosphate-Buffered Saline without Ca and Mg [D-PBS (–)] (Wako or Nakarai Tesque). In case of using GM03813 or GM24468-derived MNs, cell lysis and reverse transcription were carried out using SuperPrep Cell Lysis & RT Kit for qPCR in accordance with manufacturer’s recommendations (Toyobo, Japan). qPCR was performed using THUNDERBIRD Probe qPCR Mix (Toyobo). The final concentrations of primers and probes were adjusted to 0.4 µM and 0.15 µM, respectively (Supplementary Table 1). Cycle conditions were as follows; 95 °C for 1 min; followed by 40 cycles of denaturation at 95 °C for 15 s; annealing and elongation at 60 °C for 1 min in the ViiA7 RT-PCR system (Thermo Fisher Scientific). The copy numbers of each target were normalized to those of GAPDH.

The test system of the next assay is FOXM1b. As to the kind of experiment: qPCR of FOXM1b/c variant in GM03813 fibroblasts. The settings on record: for Selectivity FOXM1b /FL-SMN2: EC50 of FOXM1b divided by EC1.5× of FL-SMN2; for EC50: Homo sapiens, Fibroblast, GM03813 fibroblasts, 24 h, 50% total target mRNA reduction, 95% CI in brackets. The method, then:
as §1, §2

For the next assay, the system named is FOXM1ΔC. As to the kind of experiment: qPCR of FOXM1ΔC variant in GM03813 fibroblasts. The settings on record: 24 h, 300% total target mRNA increase, 95% CI in brackets. Here is the method: as §1, §2
A further assay concerns FOXM1a. Nature of the assay: qPCR of FOXM1a variant in GM03813 fibroblasts. The note with it: 24 h, 200% total target mRNA increase, 95% CI in brackets. Here is the method: as §1, §2
A general note: Real-time PCR tracks product formation cycle by cycle.

The test system of another assay is GALC mRNA. As to the kind of experiment: qPCR of GALC transcripts in GM03813 fibroblasts. The note with it: for Selectivity GALC /FL-SMN2: EC50 of GALC divided by EC1.5× of FL-SMN2; for EC50: Homo sapiens, Fibroblast, GM03813 fibroblasts, 24 h, 50% total GALC mRNA reduction, 95% CI in brackets. The method, then:
as §1, §2

The next assay relates to Hs683 cells. As to the kind of experiment: psychosine/sphingosine ratio in Hs683 cells by LC/MS/MS. The note with it: 3000 nM, 12 days, normalized by sphingosine. Here is the method: Hs683 cells were seeded at 1.5 × 10^5 cells/well in 6-well plates and were treated with TEC-1 or SMN-C3 for 12 days. The sample was extracted with EtOH and dried under nitrogen spray. Pellet was completely re-dissolved in EtOH using vortex and ultrasonication. The resulting sample was centrifuged at 15,000 rpm for 5 min at 4 °C. Analytes were separated from the supernatant and quantified by LC/MS/MS as reported by Boutin et al.[48].

A further assay has as its system SMN2 splicing. Nature of the assay: qPCR of SMN transcripts in motor neurons derived from SMA patient iPSCs (GM24468). The settings on record: iPSC-derived motor neurons (GM24468), 24 h. Here is the method: GM24468 cells were differentiated to motor neurons (MNs) via a motor neuron progenitor (MNP) as previously reported. Briefly described, GM24468 were treated with a chemically defined neural medium, including DMEM/F12, Neurobasal medium at 1:1, 0.5% N2, 0.1% B27, 0.1 mM ascorbic acid (Sigma Aldrich, USA), 1 × GlutaMax, and 1 × penicillin/streptomycin. 3 µM CHIR99021 (Wako), 2 µM DMH1 (Sigma Aldrich) and 2 µM SB431542 (Wako) were added in the medium. The culture medium was changed every other day. GM24468 maintained under this condition for 6 days were induced into neuroepithelial progenitors (NEPs). NEPs were then dissociated and split with dispase (Stemcell technologies) and neural medium containing 0.1 µM RA (Sigma Aldrich), 0.5 µM Purmorphamine (Pur) (Merck, USA), 1 µM CHIR99021, 2 µM DMH1 and 2 µM SB431542. The medium was changed every other day. NEPs maintained under this condition for 6 days differentiated into OLIG2^+ MNPs. The OLIG2^+ MNPs were expanded with the same medium containing 1 µM CHIR99021, 2 µM DMH1, 2 µM SB431542, 0.1 µM RA, and 0.5 µM Pur, and split once a week. To induce MNs differentiation, OLIG2^+ MNPs cultured in suspension in the above neural medium with 0.5 µM RA and 0.1 µM Pur. The medium was changed every other day. OLIG2^+ MNPs under this condition for 6 days differentiated into MNX1^+ MNs. […]

Broadly, the EC50 is the concentration at which the effect is half-maximal. Low values mean greater potency, high ones weaker potency. For the compound `CCN1CCC(c2cc(C)c3nc(-c4cc5c(C)nc(C)cn5n4)cc(=O)n3c2)CC1` [SMN-C3, reference compound], the “EC1.5× FL-SMN2” value in the assay with FL-SMN2 mRNA was 122.1 (74.5–221.7) nM. Further, in the assay with FOXM1b, the “Selectivity FOXM1b /FL-SMN2” value came out at 8 and the EC50 is 945 nM. Also, in the assay with FOXM1ΔC, the “EC4.0× FOXM1ΔC” value is reported as 298.5 (248.8–355.8) nM. The “EC3.0× FOXM1a” value with FOXM1a was 280.3 (211.4–377.7) nM. Further, in the assay with GALC mRNA, the “Selectivity GALC /FL-SMN2” value amounted to 4 and a half-maximal response (EC50) required 459 nM. Also, the “increase in psychosine compared to the control” value in the assay on Hs683 cells is on record as “approximately 22 fold”. Further, the “SMN2 splicing in motor neurons” value with SMN2 splicing (similar effects to TEC-1) is on record as “modulates SMN2 splicing”.

For `Cc1cn2nc(-c3nc4ccc(N5CCN(C)CC5)cc4c(=O)[nH]3)cc2c(C)n1` [TEC-1, 2-(4,6-dimethylpyrazolo[1,5-a]pyrazin-2-yl)-6-(4-methylpiperazin-1-yl)quinazolin-4(3H)-one], the “EC1.5× FL-SMN2” value in the assay on FL-SMN2 mRNA is 49.1 (22.7–109.4) nM. In the assay on FOXM1b, the “Selectivity FOXM1b /FL-SMN2” value is over 61 and the EC50 was over 3000 nM. Further, the “EC4.0× FOXM1ΔC” value with FOXM1ΔC is recorded as 1311.6 (864.7–2285.8) nM. Moreover, the “EC3.0× FOXM1a” value in the assay on FOXM1a is on record as 1096.8 (809.7–1552.2) nM. In the assay with GALC mRNA, the “Selectivity GALC /FL-SMN2” value is over 61 and the 50% effective concentration (EC50) is over 3000 nM. Besides, the “increase in psychosine compared to the control” value in the assay on Hs683 cells is 1.9 fold. The “concentration showing clear ability to modulate SMN2 splicing” value in the assay on SMN2 splicing was found to be 30 nM.
